Data reported in article PMC9192788, “Identification of a D-galacturonate reductase efficiently using NADH as a cofactor” (Biotechnology Reports, 2022).

Experiments:
[1] = test system: T1, Gaa1 (E. gracilis D-galacturonate reductase); assay: reverse reaction with NADP; type: biochemical, Euglena gracilis; settings: 1 mM NADP, 0.1 M Na-phosphate pH 7, 30°C
T1 construct: full-length 420 aa, C-terminal 6xHis tag kept, synthetic codon-optimized gene expressed in S. cerevisiae, IMAC purified, ~45 kDa; primer-encoded N-terminus MVDVLMVGT
Excerpt: reverse reaction with NADP on Gaa1 (E. gracilis D-galacturonate reductase)

[2] = test system: T1, Gaa1 (E. gracilis D-galacturonate reductase); assay: NAD(P)H oxidation, absorbance at […] nm; type: biochemical, Euglena gracilis; settings: 1 mM NADPH, 0.1 M Na-phosphate pH 7, 30°C

Compound | Km [1] [µM] | Km [2] [µM]
O=C(O)[C@@H](O)[C@H](O)[C@H](O)[C@@H](O)CO [L-galA, L-galactonate] | 700 | 
O=C(O)[C@H]1OC(O)[C@H](O)[C@@H](O)[C@H]1O (stereo partly drawn) [GalUA, D-galacturonate] |  | 300
